Assay results taken from EP0054756A2, “Antibacterial benzylpyrimidines” (THE WELLCOME FOUNDATION LIMITED, priority 1980, dated 1982).
Converted amounts (≈) assume the structure as drawn. Like-named read-outs stand apart in the source and are kept apart here.

How the values were obtained:
Staphylococcus aureus [1] = experiment: In vitro MIC against bovine mastitis strains; assay type: cell-based; conditions: "OXFORD", Internal Ref. No. 6571, read-out: Approximate MIC
Staphylococcus aureus [2] = experiment: In vitro MIC against bovine mastitis strains; assay type: cell-based; conditions: read-out: Approximate MIC
Text: (§1) All organisms were isolated from the bovine udder.

Streptococcus uberis = experiment: In vitro MIC against bovine mastitis strains; assay type: cell-based; conditions: Internal Ref. No. 359, isolated from the bovine udder, read-out: Approximate MIC
Text: as §1

[3] = system: Streptococcus dysgalactiae; experiment: In vitro MIC against bovine mastitis strains; assay type: cell-based; conditions: read-out: Approximate MIC
Text: as §1

Streptococcus agalactiae = experiment: In vitro MIC against bovine mastitis strains; assay type: cell-based; conditions: read-out: Approximate MIC
Text: as §1

Dihydrofolate reductase [4] = biological target: Dihydrofolate reductase (Neisseria gonorrhoeae, UniProt P04174); experiment: biochemical; conditions: N. gonorrhea enzyme; read-out: Dihydrofolate reductase inhibition, I50 x 10^8
Dihydrofolate reductase [5] = biological target: Dihydrofolate reductase (Escherichia coli, UniProt P0ABQ4); experiment: Dihydrofolate reductase inhibition; assay type: biochemical, E. coli
Dihydrofolate reductase [6] = biological target: T1, Dihydrofolate reductase (Rattus norvegicus, UniProt Q920D2); experiment: Dihydrofolate reductase inhibition; assay type: biochemical, Rat liver
T1 construct: Rat liver; from tissue; host or cells: rat liver
T1 sequence (Q920D2 1-187): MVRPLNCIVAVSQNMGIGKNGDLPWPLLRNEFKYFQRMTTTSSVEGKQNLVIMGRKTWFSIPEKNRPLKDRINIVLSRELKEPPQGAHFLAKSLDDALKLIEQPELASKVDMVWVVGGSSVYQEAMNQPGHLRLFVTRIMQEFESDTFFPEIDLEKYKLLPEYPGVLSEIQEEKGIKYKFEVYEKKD

St. pyogenes = experiment: In vitro antibacterial activity (MIC); assay type: cell-based; conditions: Streptococcus pyogenes
E. coli CN 314 = experiment: In vitro antibacterial activity (MIC); assay type: cell-based; conditions: Escherichia coli, CN314
Strep.Faecalis CN 478 = experiment: In vitro antibacterial activity (MIC); assay type: cell-based; conditions: Enterococcus faecalis, CN478
Staph.aureus CN 491 = experiment: In vitro antibacterial activity (MIC); assay type: cell-based; conditions: Staphylococcus aureus, CN491
N. gonorrhea [7] = experiment: In vitro antibacterial activity versus TMP, Difco test; assay type: cell-based; conditions: activity relative to trimethoprim
N. gonorrhea [8] = experiment: In vitro antibacterial activity versus TMP, Wellcome test; assay type: cell-based; conditions: activity relative to trimethoprim
Dihydrofolate reductase [9] = biological target: Dihydrofolate reductase (Plasmodium berghei, UniProt Q27713); experiment: biochemical; conditions: P. berghei enzyme; read-out: Dihydrofolate reductase inhibition, I50 x 10^8
[10] = LD50 intraperitoneal in male rats; conditions: rat, in vivo, ip
Protocol: The LD50's ( expressed in rng/kg intraperitoneal) of two compounds of the present invention were determined in male rats.

[11] = Internal Ref. No. 316, isolated from the bovine udder
[12] = Internal Ref. No. 317, isolated from the bovine udder
[13] = Internal Ref. No. 348, isolated from the bovine udder
[14] = Internal Ref. No. 349, isolated from the bovine udder
[15] = Internal Ref. No. 352, isolated from the bovine udder
[16] = Internal Ref. No. 353, isolated from the bovine udder
[17] = Internal Ref. No. 366, isolated from the bovine udder
[18] = Internal Ref. No. 367, isolated from the bovine udder
[19] = Internal Ref. No. 321, isolated from the bovine udder
[20] = Internal Ref. No. 371, isolated from the bovine udder
[21] = read-out: MIC St. pyogenes CN 10
[22] = read-out: MIC St. pyogenes S3640

Molecule	MIC (Staphylococcus aureus [1])	MIC (Staphylococcus aureus [2]; [11])	MIC (Staphylococcus aureus [2]; [12])	MIC (Staphylococcus aureus [2]; [13])	MIC (Staphylococcus aureus [2]; [14])	MIC (Staphylococcus aureus [2]; [15])	MIC (Staphylococcus aureus [2]; [16])	MIC (Streptococcus uberis)	MIC [3, 17]	MIC [3, 18]	MIC (Streptococcus agalactiae; [19])	MIC (Streptococcus agalactiae; [20])	IC50 (Dihydrofolate reductase [4])	IC50 (Dihydrofolate reductase [5])	IC50 (Dihydrofolate reductase [6])	MIC (St. pyogenes; [21])	MIC (St. pyogenes; [22])	MIC (E. coli CN 314)	MIC (Strep.Faecalis CN 478)	MIC (Staph.aureus CN 491)	other results
COc1cc(Cc2cnc(N)nc2N)cc(OCCOCc2ccccc2)c1OC [compound 4, 2,4-Diamino-5-(3,4-dimethoxy-5-(2-benzyloxyethoxy)benzyl)pyrimidine]	0.075 µM (≈ 0.0308 µg/mL)	0.25 µM (≈ 0.103 µg/mL)	0.075 µM (≈ 0.0308 µg/mL)	0.25 µM (≈ 0.103 µg/mL)	0.075 µM (≈ 0.0308 µg/mL)	0.25 µM (≈ 0.103 µg/mL)	0.075 µM (≈ 0.0308 µg/mL)	2.5 µM (≈ 1.03 µg/mL)	3.3 µM (≈ 1.35 µg/mL)	1 µM (≈ 0.41 µg/mL)	0.25 µM (≈ 0.103 µg/mL)	2.5 µM (≈ 1.03 µg/mL)	78 nM	5.4 nM	300000 nM	–	–	–	–	–	–
COc1cc(Cc2cnc(N)nc2N)cc(OCCSc2ccccc2)c1OC [Example 14, 2,4-Diamino-5-(3,4-dimethoxy-5-(2-(phenylthio)ethoxy)benzyl)pyrimidine]	–	–	–	–	–	–	–	–	–	–	–	–	11.4 nM	5.3 nM	37000 nM	0.5 µg/mL (≈ 1.21 µM)	0.5 µg/mL (≈ 1.21 µM)	1 µg/mL (≈ 2.42 µM)	0.5 µg/mL (≈ 1.21 µM)	0.5 µg/mL (≈ 1.21 µM)	–
COc1cc(Cc2cnc(N)nc2N)cc(OCCCOc2ccccc2)c1OC [compound 5, 2,4-Diamino-5-(3,4-dimethoxy-5-(3-phenoxypropoxy)benzyl)pyrimidine]	–	–	–	–	–	–	–	–	–	–	–	–	32 nM	37 nM	80000 nM	0.3 µg/mL (≈ 0.731 µM)	0.3 µg/mL (≈ 0.731 µM)	1 µg/mL (≈ 2.44 µM)	0.1 µg/mL (≈ 0.244 µM)	0.1 µg/mL (≈ 0.244 µM)	Act., vs TMP N. gonorrhea Difco test (N. gonorrhea [7]): 11.28; Act., vs TMP N. gonorrhea Wellcome test (N. gonorrhea [8]): 4.12; IC50 (Dihydrofolate reductase [9]): 150 nM
COc1cc(Cc2cnc(N)nc2N)cc(OCCCc2ccccc2)c1OC [compound 1, 2,4-Diamino-5-(3,4-dimethoxy-5-(3-phenylpropoxy)benzyl)pyrimidine]	0.025 µM (≈ 0.00986 µg/mL)	0.025 µM (≈ 0.00986 µg/mL)	0.025 µM (≈ 0.00986 µg/mL)	0.025 µM (≈ 0.00986 µg/mL)	0.025 µM (≈ 0.00986 µg/mL)	0.075 µM (≈ 0.0296 µg/mL)	0.025 µM (≈ 0.00986 µg/mL)	2.5 µM (≈ 0.986 µg/mL)	0.75 µM (≈ 0.296 µg/mL)	0.25 µM (≈ 0.0986 µg/mL)	0.075 µM (≈ 0.0296 µg/mL)	0.75 µM (≈ 0.296 µg/mL)	15 nM	4.8 nM	94000 nM	0.3 µg/mL (≈ 0.761 µM)	0.3 µg/mL (≈ 0.761 µM)	1 µg/mL (≈ 2.54 µM)	0.1 µg/mL (≈ 0.254 µM)	0.03 µg/mL (≈ 0.0761 µM)	LD50 [10]: > 100 mg/kg; Act., vs TMP N. gonorrhea Difco test (N. gonorrhea [7]): 12.81; Act., vs TMP N. gonorrhea Wellcome test (N. gonorrhea [8]): 5.46; IC50 (Dihydrofolate reductase [9]): 100 nM
2,4-diamino-5-(3,4-dime-thoxy-5-(3-p-nitrophenyl-propoxy)benzyl)pyrimidine	–	–	–	–	–	–	–	–	–	–	–	–	–	–	–	–	–	–	–	–	IC50 (Dihydrofolate reductase [5]; E. coli enzyme, read-out: Dihydrofolate reductase inhibition, I50 x 10^8): 17 nM; IC50 (Dihydrofolate reductase [6]; Rat liver enzyme, read-out: Dihydrofolate reductase inhibition, I50 x 10^8): 25000 nM
COc1cc(Cc2cnc(N)nc2N)cc(OCCCCc2ccccc2)c1OC [compound 3, 2,4-Diamino-5-(3,4-dimethoxy-5-(4-phenylbutoxy)benzyl)pyrimidine]	0.025 µM (≈ 0.0102 µg/mL)	0.075 µM (≈ 0.0306 µg/mL)	0.025 µM (≈ 0.0102 µg/mL)	0.075 µM (≈ 0.0306 µg/mL)	0.075 µM (≈ 0.0306 µg/mL)	0.075 µM (≈ 0.0306 µg/mL)	0.025 µM (≈ 0.0102 µg/mL)	0.25 µM (≈ 0.102 µg/mL)	0.75 µM (≈ 0.306 µg/mL)	0.75 µM (≈ 0.306 µg/mL)	0.25 µM (≈ 0.102 µg/mL)	0.25 µM (≈ 0.102 µg/mL)	18 nM	2.3 nM	43000 nM	0.1 µg/mL (≈ 0.245 µM)	0.1 µg/mL (≈ 0.245 µM)	3 µg/mL (≈ 7.34 µM)	0.1 µg/mL (≈ 0.245 µM)	0.03 µg/mL (≈ 0.0734 µM)	Act., vs TMP N. gonorrhea Difco test (N. gonorrhea [7]): 11.35; Act., vs TMP N. gonorrhea Wellcome test (N. gonorrhea [8]): 1.54; IC50 (Dihydrofolate reductase [9]): 11 nM
